The record followed here is ChEMBL document CHEMBL4138093, “Discovery and characterization of selective human sphingomyelin synthase 2 inhibitors” (Eur J Med Chem, 2017).

SMILES strings stand for the structures.

The target in series [1] is T1, Phosphatidylcholine:ceramide cholinephosphotransferase 2 (Homo sapiens, UniProt Q8NHU3).
T1 sequence (Q8NHU3 whole entry): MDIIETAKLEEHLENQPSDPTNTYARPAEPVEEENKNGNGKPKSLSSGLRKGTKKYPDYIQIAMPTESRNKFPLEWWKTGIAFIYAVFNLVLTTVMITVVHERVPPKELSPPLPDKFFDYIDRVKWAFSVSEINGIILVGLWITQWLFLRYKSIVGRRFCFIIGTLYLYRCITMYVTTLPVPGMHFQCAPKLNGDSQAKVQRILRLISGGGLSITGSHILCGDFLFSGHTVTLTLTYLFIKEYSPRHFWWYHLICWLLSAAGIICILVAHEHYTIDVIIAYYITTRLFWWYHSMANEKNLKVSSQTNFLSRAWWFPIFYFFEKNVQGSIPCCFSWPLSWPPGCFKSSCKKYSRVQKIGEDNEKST
As to the kind of experiment: Inhibition of full length C-terminal FLAG tagged human SMS2 expressed in HEK293 cell membranes using DMPC-d72 and C17-ceramide as substrate preincubated for 60 mins followed by substrate addition measured after 30 mins by RapidFire/mass spectrometry assay.

The species named for series [2] is Homo sapiens. In words: Selectivity index, ratio of IC50 for full length C-terminal FLAG tagged human SMS1 to IC50 for full length C-terminal FLAG tagged human SMS2.
The target of series [3] is T2, Phosphatidylcholine:ceramide cholinephosphotransferase 1 (Homo sapiens, UniProt Q86VZ5).
T2 sequence (Q86VZ5 whole entry): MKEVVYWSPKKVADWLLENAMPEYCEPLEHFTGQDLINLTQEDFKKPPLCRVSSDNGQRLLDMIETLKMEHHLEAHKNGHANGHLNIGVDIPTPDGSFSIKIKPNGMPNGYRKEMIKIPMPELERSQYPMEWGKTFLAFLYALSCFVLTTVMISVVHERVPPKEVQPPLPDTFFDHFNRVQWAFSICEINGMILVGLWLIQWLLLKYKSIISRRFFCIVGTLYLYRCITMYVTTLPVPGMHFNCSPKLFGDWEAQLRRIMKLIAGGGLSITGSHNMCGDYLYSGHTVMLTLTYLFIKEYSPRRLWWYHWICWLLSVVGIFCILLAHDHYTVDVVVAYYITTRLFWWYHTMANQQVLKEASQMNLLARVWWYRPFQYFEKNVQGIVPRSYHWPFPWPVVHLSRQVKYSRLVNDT
In words: Inhibition of full length C-terminal FLAG tagged human SMS1 expressed in HEK293 cell membranes using DMPC-d72 and C17-ceramide as substrate preincubated for 60 mins followed by substrate addition measured after 30 mins by RapidFire/mass spectrometry assay.

In series [4] the target is T2, Phosphatidylcholine:ceramide cholinephosphotransferase 1. In words: Inhibition of human SMS1.
Series [5] deals with HEK-293T. As to the kind of experiment: Cytotoxicity against HEK293T cells by CellTiter-Glo luminescent cell viability assay relative to control. It counts as cell-based. Particulars: human. A general note: Cellular ATP, detected with luciferase, serves as a proxy for viable cell number.

For the compound `S=C(S)OC1CC2CC1C1CCCC21` (stereo not given), the half-inhibitory concentration (IC50) is 56 µM in series [1] and 86 µM in series [3]. Also, in series [2], the Ratio IC50 is 1.5.
Turning to `CN(Cc1cc(C(F)(F)F)cc(C(F)(F)F)c1)C(=O)c1c(N2CCCC2)c2ccccc2n(C)c1=O`, the IC50 in series [4] is > 100 µM. For the same compound, the Activity in series [5] is > 50%.

In general, IC50 refers to the point on the concentration scale where inhibition reaches its midpoint. A high value points to weaker potency in that assay.
